Twelve molecules from patent publication US9617251B2, “Indanylaminopyridylcyclopropanecarboxylic acids, pharmaceutical compositions and uses thereof” (BOEHRINGER INGELHEIM INTERNATIONAL GMBH, priority 2015, dated 2017) can be followed below.

The nature of data set [1]: Aqueous solubility in buffer vs acetonitrile/water (1/1), LC-UV. It counts as physicochemical. Particulars: kinetic from dmso stock, buffer pH 2.2, 24 h shaking, 2.5% DMSO. The procedure:
The aqueous solubility of the compounds of the invention is determined by comparing the amount dissolved in buffer to the amount in an acetonitrile/water (1/1) solution. Starting from a 10 mM DMSO stock solution aliquots are diluted with acetonitrile/water (1/1) or buffer, respectively. After 24 h of shaking, the solutions are filtrated and analyzed by LC-UV. The amount dissolved in buffer is compared to the amount in the acetonitrile solution.
Solubility is usually being measured from 0.001 to 0.125 mg/mL at a DMSO concentration of 2.5%. If more than 90% of the compound is dissolved in buffer, the value is marked with “>”.

Data set [2] can be described thus: Chemical stability: degradation kinetics in acidic aqueous media (pH ca. 1.2), HPLC recovery. The class given is physicochemical. Particulars: pH value of ca. 1.2 (acetonitrile/0.1 M aqueous HCl 2:3), 37° C. The procedure: Degradation kinetics is used to simulate chemical stability of compounds in the acidic part of the gastro intestinal tract. […] Their application as medical drugs to treat human diseases is therefore less restricted and troublesome.
The chemical stability of the compounds of the invention at pH value of ca. 1.2 is determined as follows:
Compound is dissolved in an HPLC vial either in a mixture of acetonitrile/0.1 M aqueous HCl (2:3; pH ca. 1.2) or in a mixture of acetonitrile/McIlvaine buffer pH 7.4 (2:3) to get a concentration of approximately 0.25 mg/ml. The vial was then transferred into an HPLC autosampler system and maintained at a temperature of 37° C. A first sample is taken and injected immediately into a standard HPLC system with a UV DAD detector. Further samples are injected after 2, 4, 6, 8 and 10 hours. Amount of degraded compound is measured by determining the recovery rate of compound [%] for each injection using an HPLC standard gradient method. Therefore the peak area of the main peak for the first injection (AUt0) is determined and set as 100%. Peak area of the main peak is determined also for the further injections (AUtn, n=2, 4, 6, 8, 10) and expressed as fraction of (AUt0)/(AUtn, n=2, 4, 6, 8, 10) [%].

Data set [3] has as its target T1, cytochrome P450 2C9-isoenzyme (Homo sapiens, UniProt P11712).
T1 construct: from tissue; host or cells: human liver microsomes
As to the kind of experiment: Inhibition of CYP-2C9 (hydroxylation of diclofenac, human liver microsomes). The following applies: CYP-2C9, human liver microsomes, diclofenac 10 μM, 37° C. It counts as in vitro ADME. The method, then:
The inhibition of cytochrome P450 2C9-isoenzyme catalyzed hydroxylation of diclofenac by the test compound is assayed at 37° C. with human liver microsomes. All assays are carried out on a robotic system in 96 well plates. The final incubation volume contains TRIS buffer (0.1 M), MgCl2 (5 mM), human liver microsomes (0.1 mg/mL), diclofenac (10 μM) and the test compound at five different concentrations or no compound (high control) in duplicate (e.g., highest concentration 10-50 μM with subsequent serial 1:4 dilutions). Following a short preincubation period, reactions are started with the cofactor (NADPH, 1 mM) and stopped by cooling the incubation down to 8° C. and subsequently by addition of one volume of acetonitrile. An internal standard solution—the stable isotope ^13C6-hydroxydiclofenac—is added after quenching of incubations. Peak area analyte (=metabolite formed) and internal standard is determined by LC-MS/MS. The resulting peak area ratio analyte to internal standard in these incubations is compared to a control activity containing no test compound. Within each of the assay runs, the IC50 of a positive control inhibitor (sulfaphenazole) is determined. Experimental IC50 values are calculated by least square regression according to the following equation: % control activity=(100% control activity/(1+(I/IC50)S))−B with I=inhibitor concentration; S=slope factor; B=background activity (lower plateau of the inhibition curve)
(§1) If the inhibition of the reaction is already >50% at the lowest concentration of the test compound, the IC50 is assigned “<lowest concentration tested” (usually <0.4 μM). If the inhibition of the reaction is still <50% at the highest concentration of the test compound, the IC50 is assigned “>highest concentration tested” (usually >50 μM).

The target of data set [4] is T2, cytochrome P450 2C8-isoenzyme (Homo sapiens, UniProt P10632).
T2 construct: from tissue; host or cells: human liver microsomes
T2 sequence (P10632 1-490): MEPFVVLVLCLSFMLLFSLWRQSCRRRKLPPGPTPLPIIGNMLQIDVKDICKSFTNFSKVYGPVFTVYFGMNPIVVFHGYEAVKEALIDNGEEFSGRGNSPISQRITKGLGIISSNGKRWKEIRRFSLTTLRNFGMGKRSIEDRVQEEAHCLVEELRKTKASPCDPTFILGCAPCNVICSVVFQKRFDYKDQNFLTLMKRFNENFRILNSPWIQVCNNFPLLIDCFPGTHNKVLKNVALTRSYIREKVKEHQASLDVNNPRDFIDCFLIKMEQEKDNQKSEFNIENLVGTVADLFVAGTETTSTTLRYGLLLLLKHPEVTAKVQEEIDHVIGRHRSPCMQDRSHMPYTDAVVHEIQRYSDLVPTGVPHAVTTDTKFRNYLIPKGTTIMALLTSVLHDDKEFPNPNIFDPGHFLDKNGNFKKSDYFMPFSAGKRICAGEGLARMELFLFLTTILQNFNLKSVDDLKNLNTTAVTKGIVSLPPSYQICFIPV
As to the kind of experiment: Inhibition of CYP-2C8 (deethylation of amodiaquine, human liver microsomes). The class given is in vitro ADME. Particulars: CYP-2C8, human liver microsomes, amodiaquine 1 μM, 37° C. The method, then:
The inhibition of cytochrome P450 2C8-isoenzyme catalyzed deethylation of amodiaquine by the test compound is assayed at 37° C. with human liver microsomes. All assays are carried out on a robotic system in 96 well plates. The final incubation volume contains TRIS buffer (0.1 M), MgCl2 (5 mM), human liver microsomes (0.05 mg/mL), amodiaquine (1 μM) and the test compound at five different concentrations or no compound (high control) in duplicate (e.g. highest concentration 10-50 μM with subsequent serial 1:4 dilutions). Following a short preincubation period, reactions are started with the cofactor (NADPH, 1 mM) and stopped by cooling the incubation down to 8° C. and subsequently by addition of one volume of acetonitrile. An internal standard solution—the stable isotope d5-desethylamodiaquine—is added after quenching of incubations. Peak area analyte (=metabolite formed) and internal standard is determined by LC-MS/MS. The resulting peak area ratio analyte to internal standard in these incubations is compared to a control activity containing no test compound. Within each of the assay runs, the IC50 of a positive control inhibitor (Montelukast) is determined. Experimental IC50 values are calculated by least square regression according to the following equation: % control activity=(100% control activity/(1+(I/IC50)S))−B with I=inhibitor concentration; S=slope factor; B=background activity (lower plateau of the inhibition curve)
as §1

The target of the next data set is human GPR40 receptor (Homo sapiens, UniProt O14842). As to the kind of experiment: IP1 accumulation measurements using the IPOne assay system (1321N1 cells stably expressing human GPR40 receptor). The following applies: 1321N1 cells expressing human GPR40, 1 h stimulation at 37° C. The class given is cell-based. The procedure:
IP1 accumulation measurements using the IPOne assay system—1321N1 cells stably expressing human GPR40 receptor (Euroscreen, Belgium) are seeded 24 h before the assay in white 384-well plates in culture medium containing 10% FCS, 1% Na-Pyruvate and 400 μg/mL G418. IP1 is assayed according to the manufacturer's description (Cisbio Bioassays, France). In brief, the assay is started by substitution of the culture medium by stimulation buffer (Hepes 10 mM, CaCl2 1 mM, MgCl2 0.5 mM, KCl 4.2 mM, NaCl 146 mM, glucose 5.5 mM and LiCl 50 mM, pH 7.4). Cells are stimulated for 1 h at 37° C., 5% CO2 by addition of the compounds that are diluted in stimulation buffer containing LiCl. Assays are stopped by adding HTRF-conjugates (IP1-d2 and Anti-IP1 cryptate Tb) and lysis buffer, provided by the manufacturer. After an incubation time of 1 h at room temperature plates are measured using an EnVision™, Perkin Elmer. The obtained fluorescence ratios at 665/615 […] are then used to calculate the pEC50 values using Assay Explorer 3.3 Software (Accelrys, Inc.) by interpolation using an IP1 reference curve and subsequent sigmoidal curve fitting allowing for a variable hill slope.

Converted amounts (≈) assume the structure as drawn.

T1 sequence (P11712 whole entry): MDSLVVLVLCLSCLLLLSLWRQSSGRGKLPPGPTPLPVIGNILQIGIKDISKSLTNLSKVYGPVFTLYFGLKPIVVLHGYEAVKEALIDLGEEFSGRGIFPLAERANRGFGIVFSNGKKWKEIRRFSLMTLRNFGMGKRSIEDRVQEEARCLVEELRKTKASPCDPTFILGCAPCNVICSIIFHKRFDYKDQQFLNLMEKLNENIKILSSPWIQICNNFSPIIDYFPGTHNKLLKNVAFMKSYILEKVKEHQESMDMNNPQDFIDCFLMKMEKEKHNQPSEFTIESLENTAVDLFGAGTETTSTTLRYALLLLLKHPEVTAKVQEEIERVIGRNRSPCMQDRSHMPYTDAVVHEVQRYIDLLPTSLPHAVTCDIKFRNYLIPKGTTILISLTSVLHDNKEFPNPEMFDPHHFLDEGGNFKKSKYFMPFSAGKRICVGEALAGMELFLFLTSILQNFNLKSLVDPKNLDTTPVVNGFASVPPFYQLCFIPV
Sequence of human GPR40 receptor (O14842 whole entry): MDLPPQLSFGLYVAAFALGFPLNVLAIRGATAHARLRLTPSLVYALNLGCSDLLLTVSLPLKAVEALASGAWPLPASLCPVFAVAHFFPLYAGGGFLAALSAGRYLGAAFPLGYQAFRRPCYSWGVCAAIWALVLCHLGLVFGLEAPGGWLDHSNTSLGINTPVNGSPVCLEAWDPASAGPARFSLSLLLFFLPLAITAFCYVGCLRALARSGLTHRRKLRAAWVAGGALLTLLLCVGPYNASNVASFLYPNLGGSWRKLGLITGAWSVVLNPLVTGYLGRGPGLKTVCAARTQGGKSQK

With `Cc1cc(-c2nnn(C)n2)cc(C)c1-c1cccc2c1CC[C@H]2Nc1ccc([C@H]2C[C@@H]2C(=O)O)cn1` [Example 1, (1S,2S)-2-(6-{(R)-4-[2,6-Dimethyl-4-(2-methyl-2H-tetrazol-5-yl)-phenyl]-indan-1-ylamino}-pyridin-3-yl)-cyclopropanecarboxylic acid], the solubility at 24 h in data set [1] stood at 67 µg/mL (≈ 139 µM). Besides, the “Amount of degradation after 2 h” value in data set [2] is recorded as below 0.5%. Besides, the IC50 in data set [3] turned out to be 48 µM; in data set [4], 16 µM. The EC50 at human GPR40 receptor stood at 0.007 µM.
Molecule `Cc1cc(OCCC(C)(C)O)cc(C)c1-c1cccc2c1CC[C@H]2Nc1ccc([C@H]2C[C@@H]2C(=O)O)cn1` [Example 2, (1S,2S)-2-(6-{(R)-4-[4-(3-Hydroxy-3-methyl-butoxy)-2,6-dimethyl-phenyl]-indan-1-ylamino}-pyridin-3-yl)-cyclopropanecarboxylic acid] yielded a solubility at 24 h in data set [1] of 83 µg/mL (≈ 166 µM). In data set [2], the “Amount of degradation after 2 h” value is on record as below 0.5%. Also, the IC50 in data set [3] was above 50 µM; in data set [4], 30 µM. For the same molecule, the EC50 at human GPR40 receptor was determined as 0.011 µM.
In the same order, the values of `Cc1cc(OCCC(C)(C)O)cc(C)c1-c1ccc(F)c2c1CC[C@H]2Nc1ccc([C@H]2C[C@@H]2C(=O)O)cn1` [Example 4, (1S,2S)-2-(6-{(R)-7-Fluoro-4-[4-(3-hydroxy-3-methyl-butoxy)-2,6-dimethyl-phenyl]-indan-1-ylamino}-pyridin-3-yl)-cyclopropanecarboxylic acid] are 89 µg/mL (≈ 172 µM), below 0.5%, above 50 µM, 46 µM and 0.008 µM.
On the same counts, the results for `COc1cc(C)c(-c2ccc(F)c3c2CC[C@H]3Nc2ccc([C@H]3C[C@@H]3C(=O)O)cn2)c(C)c1` [Example 19] are 67 µg/mL (≈ 150 µM), below 1.0%, 35 µM, 26 µM and 0.016 µM.
In the same order, the values of `Cc1cc(C#N)cc(C)c1-c1ccc(F)c2c1CC[C@H]2Nc1ccc([C@H]2C[C@@H]2C(=O)O)cn1` [Example 20] are 66 µg/mL (≈ 149 µM), below 0.5%, 33 µM, 24 µM and 0.018 µM.
`Cc1cc(C(N)=O)cc(C)c1-c1ccc(F)c2c1CC[C@H]2Nc1ccc([C@H]2C[C@@H]2C(=O)O)cn1` [Example 21]: in data set [1], the solubility at 24 h is 83 µg/mL (≈ 181 µM). Also, the “Amount of degradation after 2 h” value in data set [2] is on record as below 0.5%. For the same molecule, the IC50 in data set [3] and in data set [4] was above 50 µM throughout. The molecule further showed an EC50 at human GPR40 receptor of 0.06 µM.
As for `CCc1cccc(CC)c1-c1ccc(F)c2c1CC[C@H]2Nc1ccc([C@H]2C[C@@H]2C(=O)O)cn1` [Example 23], the concentration in solution in data set [1] (solubility at 24 h) came to 75 µg/mL (≈ 169 µM). The “Amount of degradation after 2 h” value in data set [2] is given as below 0.5%. Also, the figures for the IC50 in data set [3] and in data set [4] were 15 µM and 11 µM, respectively. This molecule showed an EC50 at human GPR40 receptor of 0.005 µM.
On the same counts, the results for `Cc1nc(-c2cc(C)c(-c3ccc(F)c4c3CC[C@H]4Nc3ccc([C@H]4C[C@@H]4C(=O)O)cn3)c(C)c2)no1` [Example 26] are 65 µg/mL (≈ 130 µM), below 0.5%, above 50 µM, 35 µM and 0.004 µM.
`Cc1cc(OCC2CCOCC2)cc(C)c1-c1ccc(F)c2c1CC[C@H]2Nc1ccc([C@H]2C[C@@H]2C(=O)O)cn1` [Example 61] had a solubility at 24 h in data set [1] of 90 µg/mL (≈ 170 µM). In addition, the IC50 was found to be 33 µM in data set [3] and 15 µM in data set [4]. A half-maximal effect on human GPR40 receptor (EC50) was put at 0.005 µM.
In the same order, the values of `Cc1cc(-c2ccn(C)c(=O)n2)cc(C)c1-c1ccc(F)c2c1CC[C@H]2Nc1ccc([C@H]2C[C@@H]2C(=O)O)cn1` [Example 71] are 121 µg/mL (≈ 231 µM), above 50 µM, 18 µM and 0.006 µM.
`Cc1cc(OCC2(O)CCSCC2)cc(C)c1-c1ccc(F)c2c1CC[C@H]2Nc1ccc([C@H]2C[C@@H]2C(=O)O)cn1` [Example 73] displayed a solubility at 24 h in data set [1] of 89 µg/mL (≈ 158 µM). Moreover, the figures for the 50% inhibitory concentration (IC50) in data set [3] and in data set [4] were 45 µM and 20 µM, respectively. This molecule also had a 50% effective concentration (EC50) on human GPR40 receptor of 0.017 µM.
In the same order, the values of `COc1c(F)c(F)c(-c2ccc(F)c3c2CC[C@H]3Nc2ccc([C@H]3C[C@@H]3C(=O)O)cn2)c(F)c1F` [Example 76] are 104 µg/mL (≈ 212 µM), 40 µM, 30 µM and 0.003 µM.
